Source: US20100216857A1, “METHOD OF TREATING MOTOR DISORDERS WITH 4-(1-(2,3-DIMETHYLPHENYL)ETHYL)-1H-IMIDAZOLE-2(3H)-THIONE” (priority 2007, published 2010)
Values joined by “and” are separate entries in the source; they are usually repeats but may differ in a detail not shown here. Identical values can stand only once. Marks after values point to notes of the source that are not given here.

Experiments:
[1] = system: Nigrostriatal-lesion-induced Rotational Behavior; test: Nigrostriatal-lesion-induced rotational behavior following amphetamine administration; format: in vivo, rats; conditions: for % DECREASE ROTATIONS (relative to Vehicle+Amphetamine): nigrostriatal-lesioned rats, 15 min before amphetamine SC
Method: Table 3, below, indicates the changes in rotational behavior in nigrostriatal-lesioned rats treated with the compound of the invention and the psychostimulant amphetamine. Drug 1 was administered 15 minutes before amphetamine, and 10 minutes post-amphetamine, the animals were placed into the rotometer for 30 or 60 minutes. “% decrease rotations” indicates the percentage decrease in total rotations relative to the Vehicle+Amphetamine group. ⋄ indicates significant difference (P≦0.05) relative to Vehicle+Amphetamine treated animals. * indicates significant difference (P+0.05) relative to Vehicle+Vehicle treated animals.
Amphetamine-induced rotational behavior. Pre-Apomorphine-screened (rotated) rats (with lesions ≧95% DA cell loss) were purchased from Charles Rivers Laboratories. Animals were given ˜4 days to acclimate prior to testing. All animals weighted 250-300 g at the beginning of the study. Animals were treated with various combinations of vehicle or the compound of the invention and amphetamine.
Vehicle or the compound of the invention was administered (p.o.) 15 minutes before amphetamine (2 mg/kg s.c.). Rotational behavior was assessed 15 minutes post-amphetamine administration and was monitored for 60 minutes using a Rotometer system from San Diego Instruments (San Diego, Calif.).
For i.p. administration, the compounds are formulated in H2O with 0.5% DMSO and given in a volume of 1 ml/kg body weight by injecting into the intraperitoneal cavity. For p.o. administration, the compounds are formulated in H2O with 0.5% DMSO and given in a volume of 2 ml/kg body weight using a 25-gauge, 1.5 inch gavage needle that is slowly inserted through the esophagus into the stomach.

[2] = system: Cocaine-induced Hyperlocomotion; test: Cocaine-induced hyperlocomotion in the open field; format: in vivo, mice; conditions: for % DECREASE ACTIVITY (relative to Vehicle+Cocaine) / TOTAL ACTIVITY POST-COCAINE (AUC): mice, 15 min before cocaine SC
Method: Drug 1 was administered 30 minutes after the animal was placed in the open field. Drug 2 was administered subcutaneously (SC) at 45 minutes after the animal was placed in the open field (15 minutes after drug 1). AUC indicates the total amount of locomotor activity after administration of drug 2. “% decrease activity” indicates the percentage decrease in total activity relative to the Vehicle+Cocaine group. ⋄ indicates significant difference (P≦0.05) relative to Vehicle+Cocaine treated animals. * indicates significant difference (P≦0.05) relative to Vehicle+Vehicle treated animals. Amphetamine- or cocaine-induced hyperactivity. Mice were placed in an open field apparatus (FlexField, San Diego Instruments, San Diego, Calif.). […] Total activity over each 5 minute bin (21 total bins) was added to establish activity curve over the 105 minute testing. For i.p. administration, the compounds are formulated in H2O with 0.5% DMSO and given in a volume of 1 ml/kg body weight by injecting into the intraperitoneal cavity. For p.o. administration, the compounds are formulated in H2O with 0.5% DMSO and given in a volume of 2 ml/kg body weight using a 25-gauge, 1.5 inch gavage needle that is slowly inserted through the esophagus into the stomach.

[3] = system: Amphetamine-induced Hyperlocomotion; test: Amphetamine-induced hyperlocomotion in the open field; format: in vivo, mice; conditions: for % DECREASE ACTIVITY REL TO VEH + AMPH / TOTAL ACTIVITY POST-AMPHETAMINE (AUC): mice, 15 min before amphetamine SC
Method: Drug 1 was administered 30 minutes after the animal was placed in the open field. Drug 2 was administered subcutaneously (SC) at 45 minutes after the animal was placed in the open field (15 minutes after drug 1). AUC indicates the total amount of locomotor activity after administration of drug 2. “% decrease activity” indicates the percentage decrease in total activity relative to the Vehicle+Amphetamine group. ⋄ significant difference (P<0.05) relative to Vehicle+ Amphetamine treated animals. * indicates significant difference (P ≦0.05) relative to Vehicle+Vehicle treated animals. Amphetamine- or cocaine-induced hyperactivity. Mice were placed in an open field apparatus (FlexField, San Diego Instruments, San Diego, Calif.). […] Total activity over each 5 minute bin (21 total bins) was added to establish activity curve over the 105 minute testing. For i.p. administration, the compounds are formulated in H2O with 0.5% DMSO and given in a volume of 1 ml/kg body weight by injecting into the intraperitoneal cavity. For p.o. administration, the compounds are formulated in H2O with 0.5% DMSO and given in a volume of 2 ml/kg body weight using a 25-gauge, 1.5 inch gavage needle that is slowly inserted through the esophagus into the stomach.

[4] = drug 1 at 0.1 mg/kg PO, 0.1 mg/kg

Structure (SMILES)	inhibition of amphetamine-induced rotational behavior (in words) ([1]; nigrostriatal-lesioned animals)	% DECREASE ROTATIONS (relative to Vehicle+Amphetamine) ([1]; drug 1 at 0.03 mg/kg PO) [%^⋄]	% DECREASE ROTATIONS (relative to Vehicle+Amphetamine) ([1]; drug 1 at 0.1 mg/kg PO) [%^⋄]	% DECREASE ROTATIONS (relative to Vehicle+Amphetamine) ([1]; drug 1 at 1 mg/kg PO) [%^⋄*]	inhibition of increased locomotion associated with psychostimulant administration (in words) ([2]; cocaine-induced hyperactivity)	% DECREASE ACTIVITY (relative to Vehicle+Cocaine) ([2]; drug 1 at 0.01 mg/kg PO) [%^⋄]	TOTAL ACTIVITY POST-COCAINE (AUC) ([2]; drug 1 at 0.01 mg/kg PO)	% DECREASE ACTIVITY (relative to Vehicle+Cocaine) ([2]; drug 1 at 0.03 mg/kg PO) [%*]	TOTAL ACTIVITY POST-COCAINE (AUC) ([2]; drug 1 at 0.03 mg/kg PO)	% DECREASE ACTIVITY (relative to Vehicle+Cocaine) ([2]; drug 1 at 0.1 mg/kg PO) [%^⋄]	TOTAL ACTIVITY POST-COCAINE (AUC) ([2]; drug 1 at 0.1 mg/kg PO)	inhibition of increased locomotion associated with psychostimulant administration (in words) ([3]; amphetamine-induced hyperactivity)	% DECREASE ACTIVITY REL TO VEH + AMPH ([3]; drug 1 at 0.01 mg/kg PO) [%*]	TOTAL ACTIVITY POST-AMPHETAMINE (AUC) ([3]; drug 1 at 0.01 mg/kg PO)	% DECREASE ACTIVITY REL TO VEH + AMPH ([3]; drug 1 at 0.03 mg/kg PO) [%^⋄]	TOTAL ACTIVITY POST-AMPHETAMINE (AUC) ([3]; drug 1 at 0.03 mg/kg PO)	% DECREASE ACTIVITY REL TO VEH + AMPH [3, 4]	TOTAL ACTIVITY POST-AMPHETAMINE (AUC) [3, 4]	% DECREASE ACTIVITY REL TO VEH + AMPH ([3]; drug 1 at 0.2 mg/kg IP) [%^⋄*]	TOTAL ACTIVITY POST-AMPHETAMINE (AUC) ([3]; drug 1 at 0.2 mg/kg IP)
Cc1cccc(C(C)c2c[nH]c(=S)[nH]2)c1C (centres unmarked) [Compound of the invention, 4-(1-(2,3-dimethylphenyl)ethyl)-1H-imidazole-2(3H)-thione]	inhibit amphetamine-induced rotational behavior	68	68	46	effectively inhibit increased locomotion	53	4904 ± 1832.1	31	7260.8 ± 1756.5	64	3754.3 ± 1281.9	effectively inhibit increased locomotion	32	9093.3 ± 983.8	72	3783.3 ± 214.2	63%^⋄ and 72%^⋄	5036.0 ± 654.2 and 3759.1 ± 685.4	–	–
O=C(CCCN1CCC(O)(c2ccc(Cl)cc2)CC1)c1ccc(F)cc1 [Haloperidol, reference compound]	–	–	–	–	–	–	–	–	–	–	–	–	–	–	–	–	–	–	91	1123.16 ± 280.11
